The source of these data is patent publication US6720342B2, “Heterocyclic compounds and their preparation and use” (Novo Nordisk A/S, priority 1996, dated 2004).

Counter-ions that a name gives are not always drawn.

On to `FC(F)(F)c1cccc(C#CCOc2nsnc2OC2CN3CCC2C3)c1` (stereo not drawn) (as salt: oxalate) [Compound 20, Endo 3-(3-(3-(3-trifluoromethylphenyl)-2-propynyl-1-oxy)-1,2,5-thiadiazol-4-yloxy)-1-azabicyclo[2.2.1]heptane, oxalate], for which the melting point (commonly the temperature of the solid-liquid transition) is 131 to 135 °C.
In turn, `FC(F)(F)COc1nsnc1OC1CN2CCC1C2` (stereo not drawn) (as salt: oxalate) [Compound 40, Endo 3-(3-[2,2,2-trifluoroethyl-1-oxy]-1,2,5-thiadiazol-4-yloxy)-1-azabicyclo[2.2.1]heptane, oxalate] showed a melting point of 153 to 156 °C.
The same measure for `N#Cc1ccc(CSc2nsnc2OC2CN3CCC2C3)cc1` (stereo not drawn) (as salt: oxalate) [Compound 31, Endo 3-(3-[4-cyanobenzylthio]-1,2,5-thiadiazol-4-yloxy)-1-azabicyclo-[2.2.1]heptane, oxalate]: 196 to 197 °C.
With `COc1cccc(C#CC(C)Oc2nsnc2OC2CN3CCC2C3)c1` (stereo not drawn) (as salt: oxalate) [Compound 17, Endo 3-(3-[4-(3-methoxyphenyl)-3-butyn-2-yloxy]-1,2,5-thiadiazol-4-yloxy)-1-azabicyclo[2.2.1]heptane, oxalate], the melting point fell in the range of 102 to 103 °C.
Take `COc1cccc(C#CC(Oc2nsnc2OC2CN3CCC2C3)C(C)C)c1` (stereo not drawn) (as salt: oxalate) [Compound 39, Endo 3-(3-[1-(3-methoxyphenyl)-4-methyl-1-pentyn-3-yloxy]-1,2,5-thiadiazol-4-yloxy)-1-azabicyclo[2.2.1]heptane, oxalate]: the melting point is 144 to 147 °C.
For `C(#Cc1ccoc1)COc1nsnc1OC1CN2CCC1C2` (stereo not drawn) (as salt: oxalate) [Compound 26, Endo 3-(3-(3-(3-furyl)-2-propyn-1-yloxy)-1,2,5-thiadiazol-4-yloxy)-1-azabicyclo[2.2.1]heptane, oxalate] the value was 146 to 148 °C.
For `CC(C)=CCOc1nsnc1OC1CN2CCC1C2` (stereo not drawn) (as salt: oxalate) [Compound 7, Endo 3-(3-[3-methyl-2-butenyl-1-oxy]-1,2,5-thiadiazol-4-yloxy)-1-azabicyclo[2.2.1]heptane, oxalate] the value was 112 to 115 °C; for `C(#Cc1ccccn1)COc1nsnc1OC1CN2CCC1C2` (stereo not drawn) (as salt: oxalate) [Compound 25, Endo 3-(3-(2-pyridyl)-2-propyn-1-yloxy)-1,2,5-thiadiazol-4-yloxy)-1-azabicyclo[2.2.1]heptane, dioxalate], 158 to 160 °C; for `CCC(C#Cc1cccc(OC)c1)Oc1nsnc1OC1CN2CCC1C2` (stereo not drawn) (as salt: oxalate) [Compound 19, Endo 3-(3-[1-(3-methoxyphenyl)-1-pentyn-3-yloxy]-1,2,5-thiadiazol-4-yloxy)-1-azabicyclo[2.2.1]heptane, oxalate], 98 to 101 °C.
`C(#Cc1cccnc1)COc1nsnc1OC1CN2CCC1C2` (stereo not drawn) (as salt: oxalate) [Compound 23, Endo 3-(3-(3-pyridyl)-2-propyn-1-yloxy)-1,2,5-thiadiazol-4-yloxy)-1-azabicyclo[2.2.1]heptane, dioxalate]: the melting point was in the range of 136 to 139 °C.
The molecule `C(#Cc1ccccc1)COc1nsnc1OC1CN2CCC1C2` (stereo not drawn) (as salt: oxalate) [Compound 5, Endo 3-(3-[3-phenyl-2-propynyl-1-oxy]-1,2,5-thiadiazol-4-yloxy)-1-azabicyclo[2.2.1]heptane, oxalate] had a melting point of 158 to 159 °C.
On to `CCCSc1nsnc1OC1CN2CCC1C2` (stereo not drawn) (as salt: oxalate) [Compound 2, Endo 3-(3-propylthio-1,2,5-thiadiazol-4-yloxy)-1-azabicyclo[2.2.1]heptane, oxalate], for which the melting point lay within 136 to 137 °C.
On to `Fc1cccc(C#CCOc2nsnc2OC2CN3CCC2C3)c1` (stereo not drawn) (as salt: oxalate) [Compound 28, Endo 3-(3-(3-(3-fluorophenyl)-2-propyn-1-yloxy)-1,2,5-thiadiazol-4-yloxy-1-azabicyclo[2.2.1]heptane, oxalate], for which the melting point lay within 175 to 177 °C.
As for `FC(F)(F)CCCSc1nsnc1OC1CN2CCC1C2` (stereo not drawn) (as salt: oxalate) [Compound 30, Endo 3-(3-(4,4,4-trifluorobutylthio)-1,2,5-thiadiazol-4-yloxy)-1-azabicyclo-[2.2.1]heptane, oxalate], the melting point was in the range of 114 to 115 °C.
On to `Fc1cc(C(F)(F)F)ccc1COc1nsnc1OC1CN2CCC1C2` (stereo not drawn) (as salt: oxalate) [Compound 16, Endo 3-(3-[2-fluoro-4-(trifluoromethyl)-benzyloxy]-1,2,5-thiadiazol-4-yloxy)-1-azabicyclo[2.2.1]heptane, oxalate], for which the melting point was 112 to 114 °C.
In turn, `FCCSc1nsnc1OC1CN2CCC1C2` (stereo not drawn) (as salt: oxalate) [Compound 34, Endo 3-(3-[2-fluoroethyl-1-thio]-1,2,5-thiadiazol-4-yloxy)-1-azabicyclo-[2.2.1]heptane, oxalate] came in with a melting point of 131 to 133 °C.
Regarding `N#CCCSc1nsnc1OC1CN2CCC1C2` (stereo not drawn) (as salt: oxalate) [Compound 32, Endo 3-(3-[2-cyanoethylthio]-1,2,5-thiadiazol-4-yloxy)-1-azabicyclo-[2.2.1]heptane, oxalate], the melting point was in the range of 168 to 169 °C.
`FC(F)(F)CCCOc1nsnc1OC1CN2CCC1C2` (stereo not drawn) (as salt: oxalate) [Compound 15, Endo 3-(3-[4,4,4-trifluorobutyl-1-oxy]-1,2,5-thiadiazol-4-yloxy)-1-azabicyclo[2.2.1]heptane, oxalate] returned a melting point of 135 to 137 °C.
`COCCOc1nsnc1OC1CN2CCC1C2` (stereo not drawn) (as salt: oxalate) [Compound 13, Endo 3-(3-methoxyethoxy-1,2,5-thiadiazol-4-yloxy)-1-azabicyclo[2.2.1]heptane, oxalate] registered a melting point of 139 to 141 °C.
The same measure for `CSCCOc1nsnc1OC1CN2CCC1C2` (stereo not drawn) (as salt: oxalate) [Compound 12, Endo 3-(3-methylthioethoxy-1,2,5-thiadiazol-4-yloxy)-1-azabicyclo-[2.2.1]heptane, oxalate]: 117 to 119 °C.
The same measure for `C1CC(COc2nsnc2OC2CN3CCC2C3)C1` (stereo not drawn) (as salt: oxalate) [Compound 41, Endo 3-(3-cyclobutylmethyloxy-1,2,5-thiadiazol-4-yloxy)-1-azabicyclo-[2.2.1]heptane, oxalate]: 96 to 99 °C.
Take `CC#CCOc1nsnc1OC1CN2CCC1C2` (stereo not drawn) (as salt: oxalate) [Compound 11, Endo 3-(3-[2-butynyl-1-oxy]-1,2,5-thiadiazol-4-yloxy)-1-azabicyclo[2.2.1]heptane, oxalate]: the melting point fell in the range of 194 to 196 °C.
